Experimental data reported in PMC11864979, “First-in-class ultralong-target-residence-time p38α inhibitors as a mitosis-targeted therapy for colorectal cancer” (Nature Cancer, 2025).
Values joined by “and” are separate entries in the source; they are usually repeats but may differ in a detail not shown here. Identical values can stand only once.

What was measured:
[1] = target: T1, 340 wild-type kinases (Homo sapiens, UniProt Q8NG66); assay: selectivity profiling in a panel of 340 wild-type kinases (Reaction Biology Europe); type: binding; details: 0.2 µM 2015; read-out: NEK11 residual activity
T1 construct: purchased Reaction Biology Europe
T1 sequence (Q8NG66 1-645): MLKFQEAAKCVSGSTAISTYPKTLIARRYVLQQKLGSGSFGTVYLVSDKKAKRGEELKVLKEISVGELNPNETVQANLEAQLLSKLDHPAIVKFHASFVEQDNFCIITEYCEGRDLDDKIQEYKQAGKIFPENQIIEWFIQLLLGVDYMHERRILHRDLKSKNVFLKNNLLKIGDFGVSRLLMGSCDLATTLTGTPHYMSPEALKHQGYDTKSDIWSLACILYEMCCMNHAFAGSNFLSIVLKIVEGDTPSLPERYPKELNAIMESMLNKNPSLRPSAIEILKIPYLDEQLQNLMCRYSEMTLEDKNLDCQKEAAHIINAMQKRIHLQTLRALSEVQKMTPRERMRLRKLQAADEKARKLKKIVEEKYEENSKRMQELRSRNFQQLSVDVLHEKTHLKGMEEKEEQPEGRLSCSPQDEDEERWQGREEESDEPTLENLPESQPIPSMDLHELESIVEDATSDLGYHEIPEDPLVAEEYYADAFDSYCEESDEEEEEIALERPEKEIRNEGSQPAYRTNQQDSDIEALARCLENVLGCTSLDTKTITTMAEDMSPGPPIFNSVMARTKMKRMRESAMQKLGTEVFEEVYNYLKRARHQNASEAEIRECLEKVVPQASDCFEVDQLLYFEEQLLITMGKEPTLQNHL
Excerpt: Potential interactions between 2015 and 340 wild-type kinases were checked by means of a competition binding assay performed by Reaction Biology Europe (Supplementary Table 15).

[2] = target: T2, recombinant human active p38α protein, MK2 and Wee1 (Homo sapiens, UniProt Q16539); assay: p38α–Wee1 kinase assay (western blot); type: biochemical; details: 1 µM
T2 construct: purchased Abcam (p38α, MK2); Novus Biologicals (Wee1) ab271647; ab79910; H00007465-P01
T2 sequence (Q16539 whole entry): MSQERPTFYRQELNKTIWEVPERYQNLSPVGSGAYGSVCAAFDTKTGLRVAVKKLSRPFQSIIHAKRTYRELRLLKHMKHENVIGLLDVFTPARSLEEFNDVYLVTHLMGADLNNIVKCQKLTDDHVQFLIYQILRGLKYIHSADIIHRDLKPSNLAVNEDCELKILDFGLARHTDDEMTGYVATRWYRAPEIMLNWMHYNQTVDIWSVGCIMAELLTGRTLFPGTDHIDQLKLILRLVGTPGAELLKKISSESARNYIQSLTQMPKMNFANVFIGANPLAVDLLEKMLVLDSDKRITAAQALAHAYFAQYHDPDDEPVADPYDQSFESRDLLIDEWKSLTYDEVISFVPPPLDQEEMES
Procedure: Briefly, 200 ng of corresponding proteins were preincubated with 1 µM 2015 or DMSO in a kinase assay buffer (Abcam, ab189135; total volume, 100 µL) for 30 min at 37 °C. Kinase activity was induced with 20 µM ATP. Following a 30-min incubation at 37 °C, the reaction was stopped by protein inactivation (95 °C, 5 min in Laemmli buffer). The antibodies and dilutions for immunoblotting are listed in the Nature Portfolio Reporting Summary.

[3] = tested on: immune cells; assay: FACS quantification of immune cells in blood, spleen, liver and tumors of treated mice;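 for CD4+, % of CD3+ cells: blood spleen or tumors of KAP liver metastasis mice after 4 days treatment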;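 for CD69+ % of CD4+ T cells: tumor-free livers or KAP liver tumors after 4 days treatment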;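 for CD69+ % of CD8+ T cells: tumor-free livers or KAP liver tumors after 4 days treatment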;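 for CD69+ % of T cells: tumor-free livers or KAP liver tumors after 4 days treatment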;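 for CD8+, % of CD3+ cells: blood spleen or tumors of KAP liver metastasis mice after 4 days treatment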; type: in vivo, mouse; details: for CD4+, % of CD3+ cells / CD8+, % of CD3+ cells / CD69+ % of CD4+ T cells / CD69+ % of CD8+ T cells / CD69+ % of T cells: single animals; for CD4+, % of CD3+ cells / CD8+, % of CD3+ cells: Fig. 6f; for CD69+ % of CD4+ T cells / CD69+ % of CD8+ T cells / CD69+ % of T cells: Fig. 6g; for B cells, % of living cells / CD4+ T cells, % of living cells / CD8+ T cells, % of living cells / Dendritic cells, % of living cells / Granulocytes, % of living cells / Monocytes, % of living cells / NK cells, % of living cells / T cells, % of living cells: spleen, 4 d of treatment
Procedure: To determine immune cells, cell suspensions of peripheral blood, spleen, liver or tumors were prepared. Cells were lysed with ammonium chloride buffer ([…], 0.1 mM EDTA and 0.150 mM KHCO3) to eliminate erythrocytes and were stained with antibodies from Biolegend and the live–dead fixable aqua dead cell stain kit (Thermo Fisher Scientific; dilution: 1:1,000). All used antibodies and dilutions are listed in the Nature Portfolio Reporting Summary. Cells were analyzed with the LSR Fortessa (BD). Samples were gated on single viable cells and the percentage of NK cells (NK1.1^+CD3^−), T cells (CD3^+NK1.1^−), CD4^+ T cells (CD3^+NK1.1^−CD4^+CD8a^−), CD8^+ T cells (CD3^+NK1.1^−CD8a^+CD4^−), B cells (CD3^−NK1.1^−CD19^+Ly6G^−), dendritic cells (CD3^−NK1.1^−CD19^−CD11c^+), monocytes (CD3^−NK1.1^−CD19^−CD11c^−Ly6Ghigh^+CD16/32low^+) and granulocytes (CD3^−NK1.1^−CD19^−CD11c^−Ly6G^+CD16/32high^+) was calculated.

## CNC(=O)c1ccc2c(c1)C(=O)c1ccc(Nc3ccc(F)c(NC(=O)C4CC4)c3)cc1CC2 [Compound 2015]
[1]
  remaining activity at 0.2 µM: 91.3%
[2]
  p38α–MK2-mediated phosphorylation of Wee1 at S642 (in words): blocked
[3]; 4 days of treatment
  CD4^+ T cells in CRC liver metastases (in words): increases the number of CD4^+ T cells
[3]; Blood
  CD4+, % of CD3+ cells: 59.0% and 54.5% and 53.0% and 56.9%
  CD8+, % of CD3+ cells: 35.8% and 35.1% (2×) and 39.0%
[3]; Liver
  CD69+ % of CD4+ T cells: 11.90% and 8.89% and 6.59% and 10.70%
  CD69+ % of CD8+ T cells: 5.92% and 8.71% and 6.52% and 6.93%
  CD69+ % of T cells: 9.86% and 8.16% and 6.40% and 10.30%
[3]; Spleen
  CD4+, % of CD3+ cells: 67.8% and 63.7% and 64.1% and 65.2%
  CD8+, % of CD3+ cells: 25.5% and 28.8% and 28.3% and 27.0%
[3]; Tumor
  CD4+, % of CD3+ cells: 74.4% and 79.8% and 62.9%
  CD8+, % of CD3+ cells: 13.6% and 8.5% and 20.0%
  CD69+ % of CD4+ T cells: 56.80% and 69.90% and 47.60%
  CD69+ % of CD8+ T cells: 44.60% and 54.20% and 52.00%
  CD69+ % of T cells: 49.80% and 60.30% and 42.10%
[3]; healthy mice
  B cells, % of living cells: 45.80% and 42.90% and 40.80% and 40.90%
  CD4+ T cells, % of living cells: 22.70% and 22.50% and 25.00% and 24.30%
  CD8+ T cells, % of living cells: 10.00% and 8.13% and 10.80%
  Dendritic cells, % of living cells: 2.32% and 3.09% and 2.65% and 2.11%
  Granulocytes, % of living cells: 4.12% and 5.18% and 4.35% and 4.21%
  Monocytes, % of living cells: 2.59% and 2.56% and 2.30% and 2.36%
  NK cells, % of living cells: 2.30% and 4.22% and 4.00% and 4.77%
  T cells, % of living cells: 35.20% and 32.90% and 37.90% and 36.50%
[3]; tumor mice (KAP metastases)
  B cells, % of living cells: 40.60% and 49.20% and 45.00% and 44.10%
  CD4+ T cells, % of living cells: 26.10% and 18.70% and 20.10% and 20.40%
  CD8+ T cells, % of living cells: 9.80% and 8.43% and 8.87% and 8.45%
  Dendritic cells, % of living cells: 3.14% and 2.58% and 3.53% and 2.01%
  Granulocytes, % of living cells: 3.71% and 4.06% and 4.14% and 4.54%
  Monocytes, % of living cells: 3.31% and 3.61% and 4.85% and 6.16%
  NK cells, % of living cells: 3.40% and 4.06% and 3.95% and 4.77%
  T cells, % of living cells: 38.40% and 29.30% and 31.40% and 31.30%
